According to patent US9095616B2, “Caged platinum nanoclusters for anticancer chemotherapeutics” (priority 2013, dated 2015):

Experiments:
MDA-MB-231 = experiment: MTT cytotoxicity; type: cell-based, human; conditions: MDA-MB-231, 3 d
Procedure: Cells of the MDA-MB-231 line (Bioresource Collection and Research Center, Taiwan) were cultured in RPMI 1640 medium supplemented with 10% fetal bovine serum under 5% CO2 atmosphere at 37° C. Twenty-four-well cell culture plates were inoculated with 1×10^5 cells/well and kept at 37° C. for 24 h. The culture medium was changed in the presence of various concentrations of different treatments ([…] alone, carboplatin, cisplatin, and CPN) in culture medium (three replicates). The tests were performed for 3 d without changing the medium. After the overlaying cell-culture medium was removed, the cells were incubated with 3-(4,5-dimethylthiazol-2-yl)-2,5-diphenyltetrazolium bromide (MTT, Sigma, Mo. USA) at 37° C. for 1 h. After treatment, the fomazan product from MTT was dissolved in DMSO and quantified using a conventional ELISA reader at 570 nm. For calibration, a blank test was performed in a 24-well plate under the same conditions.

MDA-MB-231 cell line = experiment: ROS assay using CM-H2DCFDA; type: cell-based, human; conditions: 3 h
Procedure: MDA-MB-231 cell line was cultured in RPMI 1640 medium (media were supplemented with 10% fetal bovine serum) under 5% CO2 atmosphere at 37° C. The cells were inoculated with 1×10^5 cells per well in a 6-well cell-culture plate and cultivated at 37° C. for 24 h. Then, the culture medium was changed with the presence of various treatments, including […] alone, the CPN, cisplatin, and 0.03% H2O2 in the culture medium. The tests were performed for 3 h without changing the medium. After removal of the supernatant of cell culture medium, the cells were isolated for ROS assay using CM-H2DCFDA from INVITROGENTM.

[1] = Maximal tolerated dose (Table 1); type: in vivo; conditions: IV injection
Procedure: The therapeutic efficacy of CPN using subcutaneous breast cancer xenograft in mice was evaluated by intratumoral (IT) injection. The maximal tolerated dose (MTD) of various drugs, such as CPN and cisplatin, was described in Table 1. […] Thus, the programmed death pathway of CPN-treated cells might be similar to that of cisplatin-treated cells. We verified whether the CPN could be injected into blood vessels to exert tumor-inside activation for anticancer chemotherapeutics. Thus, the CPN was extra coated with a cleavable PEG layer to prevent protein adhesions after intravenous (i.v.) injection to form a double-caged PN (DCPN). […] To render the DCPN with a targeting function, an iRGD tumor-penetrating peptide was co-administered with the DCPN into subcutaneous xenograft nude mice of breast cancer by IV administration. The tumor size in each mouse was grown to about 150 mm^3 to facilitate DCPN delivery. Additionally, the DCPN and one of the control groups (G2NH2 coated with a PEG corona) were pre-attached with as NIR dye, cy5.5, for real-time tracking alter administration. […] Consecutive tissue sections front four groups, including the control, cisplatin, G2NH2, and DCPN groups were examined histologically by hematoxylin and eosin (H&E) staining at the end point, and the slides were evaluated by an independent pathologist (FIG. 16). […]

[2] = test system: subcutaneous breast cancer xenograft; experiment: Tumor suppression after IT injection; type: in vivo, Balb/c nude mice; conditions: IT injection once a week for 3 weeks, vs PBS and G2NH2
Procedure: (§1) Seven-week-old female Balb/c nude mice (16-20 g) were kept on a 12-h light/12-h dark cycle at 24±2° C. and 50±10% relative humidity, with free access to water and food. They were subcutaneously injected with […] cells/mouse to establish a breast tumor model. Tumors were measured by a digital Vernier caliper across each tumor's longest (a) and shortest (b) diameter, and tumor volume (V) was calculated by the formula V=0.5a×b^2. When the tumor size reached approximately 60 mm^3 and 150 mm^3, CPN and DCPN were administered by IT and IV injection, respectively. The stud of comparative efficiency in tumor suppression was performed. The mice were treated with CPN via IT injections once a week for a total of 3 weeks. Similarity. DCPN was administered to mice via IV once a week for 4 weeks. The injection volume was 5 μL/g body weight and the tumor size was calculated every 2 to 3 days. After the mice were sacrificed, tumors and blood were collected and placed in EDTA glass tubes.

[3] = test system: subcutaneous breast cancer xenograft; experiment: TUNEL assay of tumor tissue; type: in vivo, Balb/c nude mice; conditions: after treatment for 48 hours
Description: Terminal dexoxynucleotidyl […]-mediated dUTP nick end labeling (TUNEL) assay was used for in situ detection of apoptotic cell death. The frozen sections of tumor tissue (4 μm thick) were warmed up to room temperature. The slides were washed 3 times with PBS to remove OCT (one of tumor's embedded medium for frozen tissues). The labeling procedures followed the standard protocol of this kit. These slides were stained with 3,3'-diaminobenzidne (DAB, Thermo, S21024-2), then counterstained with hematoxylin and mounted onto glass coverslisps before monitoring by light microscopy.

[4] = test system: subcutaneous breast cancer xenograft; experiment: Active caspase-3 immunohistochemistry of tumor tissue; type: in vivo, Balb/c nude mice
Procedure: The frozen sections of tumor tissue (4 μm thick) were warm up to room temperature washed 3 times with PBS (5 min/time), and fixed with freshly prepared 4% paraformaldehyde in PBS for 15 minutes. The fixed sections were immersed in a polyclonal rabbit anti-mouse active caspase-3 antibody (Abeam Inc., ab2302, 5 μg/mL in 10% BSA of PBS, 50 μL/sample) at 4° C. for overnight, followed by washing with PBS (three times, 15 min/time) and incubating with peroxidase-conjugated polyclonal goat anti-rabbit antibodies (Abeam Inc., ab6721-200, 1:500 (v/v) in PBS, 100 μL/sample) at room temperature for 2 hours. These slides were first stained with DAB, subsequently counterstained with hematoxylin, and mounted with glass coverslisps before monitoring by light microscopy.

[5] = test system: subcutaneous xenograft of breast cancer; experiment: Tumor suppression after IV injection with iRGD co-administration; type: in vivo, Balb/c nude mice; conditions: IV 16.6 μmol/kg at 7-day intervals, 4 weeks, iRGD co-administered, vs PBS and G2NH2
Procedure: as §1
The therapeutic efficacy of CPN using subcutaneous breast cancer xenograft in mice was evaluated by intratumoral (IT) injection. […] Consecutive tissue sections front four groups, including the control, cisplatin, G2NH2, and DCPN groups were examined histologically by hematoxylin and eosin (H&E) staining at the end point, and the slides were evaluated by an independent pathologist (FIG. 16). […]

| SMILES | IC50 (MDA-MB-231) [µg/mL] | ROS production (MDA-MB-231 cell line) | maximal tolerated dose (MTD) [1] [µmol/kg] | tumor suppression [2] | TUNEL staining (broken DNA strands) [3] | apoptosis by active caspase-3 immunostaining [4] | tumor growth / tumor volume [5] |
| --- | --- | --- | --- | --- | --- | --- | --- |
| N.N.O=C([O-])C1(C(=O)[O-])CCC1.[Pt+2] [carboplatin] | 35 | – | – | – | – | – | – |
| N.N.[Cl][Pt][Cl] [cisplatin] | 7 | no significant ROS increase or decrease | 16.6 | notably efficacious in tumor suppression | TUNEL-positive staining | can indeed cause apoptosis | can indeed cause tumors to shrink |
